Active and inactive are the calls of the source.

The target in experiment [1] is T1, Corticotropin-releasing factor receptor 2/Corticotropin-releasing factor-binding protein (Homo sapiens, UniProt P24387+Q13324).
T1 sequence (Q13324 whole entry): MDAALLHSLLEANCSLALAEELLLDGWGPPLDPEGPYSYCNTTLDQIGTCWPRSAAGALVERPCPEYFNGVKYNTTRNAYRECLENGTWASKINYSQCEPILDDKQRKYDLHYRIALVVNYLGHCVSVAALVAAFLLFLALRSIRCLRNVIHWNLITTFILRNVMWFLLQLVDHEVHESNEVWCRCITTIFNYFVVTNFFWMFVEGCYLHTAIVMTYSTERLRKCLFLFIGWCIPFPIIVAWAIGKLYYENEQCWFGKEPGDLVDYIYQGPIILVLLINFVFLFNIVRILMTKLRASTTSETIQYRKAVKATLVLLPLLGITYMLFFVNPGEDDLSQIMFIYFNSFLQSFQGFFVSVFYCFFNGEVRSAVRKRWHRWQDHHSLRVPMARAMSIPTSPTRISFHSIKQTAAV
T1 sequence (P24387 whole entry): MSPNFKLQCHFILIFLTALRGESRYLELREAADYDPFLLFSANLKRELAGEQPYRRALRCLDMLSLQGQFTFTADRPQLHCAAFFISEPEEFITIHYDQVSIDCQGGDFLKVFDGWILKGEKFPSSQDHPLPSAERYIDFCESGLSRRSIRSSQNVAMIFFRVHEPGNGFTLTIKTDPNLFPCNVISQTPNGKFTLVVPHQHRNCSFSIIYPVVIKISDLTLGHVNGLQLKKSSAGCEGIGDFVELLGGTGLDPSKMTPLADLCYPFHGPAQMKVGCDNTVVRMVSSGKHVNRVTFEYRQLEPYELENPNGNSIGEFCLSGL
Nature of the experiment: Dose Response confirmation of uHTS hits for small molecule antagonists of the CRF-binding protein and CRF-R2 receptor complex. It is filed as functional. As to conditions: read-out: IC50_Mean.

Experiment [2] addresses T1, Corticotropin-releasing factor receptor 2/Corticotropin-releasing factor-binding protein. Kind of experiment: activators of CRF receptor 2 with binding protein – uHTS hits, confirmation (AID 602473). It is filed as functional. The conditions noted are these: read-out: EC50_Mean.
Experiment [3] is described as follows: CRF-BP/CRF-R2 complex antagonists, dose response, cell-based, uHTS hits, 384-well (AID 651639). It is filed as functional, Homo sapiens. As to conditions: read-out: IC50_Mean.
Experiment [4] has as its target T2, Small ubiquitin-related modifier 1 (Homo sapiens, UniProt P63165). Nature of the experiment: inhibitors of SUMO1 partner interactions, dose response, biochemical, FRET (AID 624383). The conditions noted are these: read-out: IC50_Mean. It is filed as functional.
Another experiment has as its target T3, Estrogen receptor (Homo sapiens, UniProt P03372).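 Note: potency for inhibiting coactivator peptide recruitment to the receptor.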
T3 sequence (P03372 whole entry): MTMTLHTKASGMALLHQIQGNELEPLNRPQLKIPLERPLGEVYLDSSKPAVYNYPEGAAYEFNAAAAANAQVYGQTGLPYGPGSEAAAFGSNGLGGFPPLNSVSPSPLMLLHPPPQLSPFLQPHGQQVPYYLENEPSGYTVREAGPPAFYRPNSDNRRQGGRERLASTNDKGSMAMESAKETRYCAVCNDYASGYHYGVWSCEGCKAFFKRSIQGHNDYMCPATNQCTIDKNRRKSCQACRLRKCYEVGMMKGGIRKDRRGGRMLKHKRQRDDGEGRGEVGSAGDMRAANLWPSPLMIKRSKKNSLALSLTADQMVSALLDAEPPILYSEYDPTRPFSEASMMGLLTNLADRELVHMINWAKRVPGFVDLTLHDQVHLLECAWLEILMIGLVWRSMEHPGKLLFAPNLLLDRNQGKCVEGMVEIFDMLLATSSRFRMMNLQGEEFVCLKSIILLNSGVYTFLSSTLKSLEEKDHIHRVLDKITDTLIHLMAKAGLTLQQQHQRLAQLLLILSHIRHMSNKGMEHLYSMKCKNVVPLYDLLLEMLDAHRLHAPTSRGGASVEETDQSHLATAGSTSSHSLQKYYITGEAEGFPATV

The target of experiment [5] is T2, Small ubiquitin-related modifier 1. Kind of experiment: inhibitors of SUMO1 peptide binding, dose response, biochemical, fluorescence polarization, uHTS hits (AID 624382). It is filed as functional. As to conditions: read-out: IC50_Mean. In general terms: Fluorescence polarisation rises when a labelled molecule tumbles more slowly, as on binding a larger partner.

T2 sequence (P63165 whole entry): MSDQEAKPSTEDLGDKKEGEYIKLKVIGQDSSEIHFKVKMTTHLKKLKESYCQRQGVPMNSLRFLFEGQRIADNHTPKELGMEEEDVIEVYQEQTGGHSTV

As for `Cc1cc(C)cc(N(C(=O)c2nsc(Cl)c2Cl)C(C(=O)NC2CCCC2)c2ccc(O)cc2)c1` (stereo unspecified), the IC50 is 6.02 µM (active) in experiment [1] and > 20 µM (inactive) in experiment [3]. The EC50 in experiment [2] is > 53 µM (inactive).

Take `Cc1ccc(-n2nnnc2SCC(=O)Nc2ccc3c(c2)COC3=O)cc1C`: the IC50 in experiment [4] was 8.2 µM (active); at Estrogen receptor, 27.1 µM (active); in experiment [5], > 66.6 µM (inactive).

(Values after ChEMBL document CHEMBL1201862, “PubChem BioAssay data set” (2004).)
